Measured values: patent US20250019398A1, “NONAMERIC PEPTIDE HAVING EXCELLENT ANTIBACTERIAL ACTIVITY AGAINST GRAM-NEGATIVE BACTERIA AND ENANTIOMER THEREOF” (priority 2021, published 2025)
Converted amounts (≈) assume the structure as drawn. “Also recorded” adds a separate entry of the source. Where two headings read alike, the source gives them in different places. Square brackets hold non-standard residues; d marks the D form. Ends that are not written are not given here. Peptide text beside a SMILES is read from it.

How the values were obtained:
[1] = tested on: carbapenem-resistant E. coli NCCP16044 (CREC 16044); assay: microbe, parasite or virus in culture; type: cell-based; settings: 16 hours, read-out: Minimal inhibitory concentration (MIC), CREC 16044
Source text: (§1) Among the bacterial strains used in the experiment, Escherichia coli KCTC 1682 was obtained from the Korean Collection for Type Cultures (KCTC) (Jeongeup, Korea), Acinetobacter baumannii KCCM 40203 and Pseudomonas aeruginosa KCCM 11328 were obtained from the Korean Culture Center of Microorganisms (KCCM) (Seoul, Korea), and Klebsiella pneumonia NCCP 16054 was obtained from the National Culture Collection for Pathogens (NCCP) (Osong, Korea). In addition, carbapenem-resistant E. coli NCCP16044 and carbapenem-resistant Klebsiella pneumonia NCCP 15782 were obtained from the NCCP, and three types of carbapenem-resistant A. baumanii CCARM 12004-6 were obtained from the Culture Collection of Antimicrobial Resistance Microbes (CCARM) (Cheongju City, Korea). The E. coli K1 (ATCC700973) strain used in the animal experiments was obtained from the American Type Culture Collection (ATCC) ([…]).
(§2) The antimicrobial activities of the peptides were measured by a minimal inhibitory concentration (MIC) analysis. The MIC was determined using a broth dilution method. All bacterial strains were grown overnight at 37° C. in a Muller-Hinton (MH) medium.

[2] = tested on: CRAB 12005 (carbapenem-resistant A. baumanii CCARM); assay: MIC, broth dilution; type: cell-based, A. baumannii; settings: 16 hours, read-out: Minimal inhibitory concentration (MIC), CRAB 12005
Source text: as §1, §2

[3] = tested on: CRAB 12004 (carbapenem-resistant A. baumanii CCARM); assay: MIC, broth dilution; type: cell-based, A. baumannii; settings: 16 hours, read-out: Minimal inhibitory concentration (MIC), CRAB 12004
Source text: as §1, §2

[4] = tested on: CRAB 12006 (carbapenem-resistant A. baumanii CCARM); assay: MIC, broth dilution; type: cell-based, A. baumannii; settings: 16 hours, read-out: Minimal inhibitory concentration (MIC), CRAB 12006
Source text: as §1, §2

[5] = tested on: sheep red blood cells (sRBCs); assay: Hemolysis of sheep red blood cells; type: cell-based; settings: for Hemolysis of sRBCs: 100 μM, 1 h
Description: Peptide-induced toxicity was determined by hemolysis of sheep red blood cells (sRBCs). Fresh sRBCs were washed three times or more with phosphate buffered saline (PBS), and debris was removed by centrifugation (1000×g, 5 minutes, 4° C.). All the peptides including a melittin control (0.2 to 100 μM) and a positive control (1% (v/v) Triton X-100) were cultured with 4% (v/v) sRBCs at 37° C. for 1 h, and then centrifuged at 1000×g for 5 minutes. The supernatant was measured at 405 nm using a microplate reader.

[6] = tested on: Klebsiella pneumonia NCCP 16054; assay: MIC, broth dilution; type: cell-based; settings: standard Gram-negative bacteria, 16 hours
Source text: as §1, §2

[7] = tested on: carbapenem-resistant Klebsiella pneumonia NCCP 15782 (CRKP 15782); assay: MIC, broth dilution; type: cell-based; settings: 16 hours
Source text: as §1, §2

[8] = tested on: E. coli; type: cell-based; settings: 37° C.; for MIC, E. coli + Trypsin: peptide pre-cultured with trypsin 6 hours; for MIC, E. coli + α-Chymotrypsin: peptide pre-cultured with α-chymotrypsin 6 hours
Description: (§3) Proteolysis of peptides in serum has limited clinical use due to decreased bioavailability and half-life. Therefore, the stability of all the peptides pre-exposed to trypsin and chymotrypsin proteases was investigated and the relative growth inhibition of E. coli and A. baumannii was determined (Table 3). […] Thereafter, 100 μL of a peptide-protease mixture was added to 100 μL of a bacterial suspension (E. coli, A. baumannii, 2×10^5 CFU/mL), and the resulting mixture was further cultured at 37°° C. for 16 hours. A bacterial suspension without a peptide and protease was employed as a negative control. An analysis was performed in triplicates through independent experiments, and the degree of bacterial growth was measured at 600 nm using a microplate reader.

[9] = tested on: A. baumannii; type: cell-based; settings: 37° C.; for MIC, A. baumannii + Trypsin: peptide pre-cultured with trypsin 6 hours; for MIC, A. baumannii + α-Chymotrypsin: peptide pre-cultured with α-chymotrypsin 6 hours
Description: as §3

[10] = tested on: Pseudomonas aeruginosa KCCM 11328; assay: MIC, broth dilution; type: cell-based; settings: standard Gram-negative bacteria, 16 hours
Source text: as §1, §2

[11] = tested on: Acinetobacter baumannii KCCM 40203; assay: MIC, broth dilution; type: cell-based; settings: standard Gram-negative bacteria, 16 hours
Source text: as §1, §2

[12] = tested on: RAW 264.7 mouse macrophages; assay: WST-8 cytotoxicity; type: cell-based; settings: 100 μM, 24 hours
Description: (§4) Additionally, for a cell-based toxicity assay, RAW 264.7 mouse macrophages and human kidney (HK)-2 cells were obtained from the Korean Cell Line Bank (Seoul, Korea), and cells were maintained in a DMEM culture medium (Thermo Fischer Scientific Inc., MA, USA) supplemented with 10% fetal bovine serum and 1% penicillin/streptomycin at 37° C. in a humidified 5% CO2 incubator. The cytotoxicity of the peptides was analyzed using a WST-8 cell proliferation assay (Biomax Co, Ltd, Seoul, South Korea), and the experiment was performed according to the kit protocol. Cells (1×10^4) were seeded in a 96-well plate, the peptide treatment (0 to 100 μM) were initiated at 80% confluency and then the cells were cultured for 24 hours. After culturing, a WST-8 reagent was added and the change in absorbance was read at 450 nm relative to the reagent blank, and values were expressed as percent cell survival.

[13] = tested on: human kidney (HK)-2 cells; assay: WST-8 cytotoxicity; type: cell-based; settings: 100 μM, 24 hours
Description: as §4

[14] = In vivo toxicity (serum AST, ALT, BUN); design: species or system ICR mice; settings: 1 mg/kg and 5 mg/kg i.p., 24 hours
Description: For in vivo toxicity measurements, ICR mice (n=5 per group) were injected intraperitoneally (i.p.) with R-Pro9-3D (1 mg and 5 mg/kg/day in PBS), and serum levels of aspartate aminotransferase (AST) and alanine aminotransferase (ALT) in the liver and BUN (blood urea nitrogen) in the kidney were measured using a standard kit manufactured by ASAN PHARM. Co., LTD.

[15] = tested on: Escherichia coli KCTC 1682; assay: MIC, broth dilution; type: cell-based; settings: standard Gram-negative bacteria, 16 hours; read-out: Minimal inhibitory concentration (MIC), E. coli
Source text: In addition, carbapenem-resistant E. coli NCCP16044 and carbapenem-resistant Klebsiella pneumonia NCCP 15782 were obtained from the NCCP, and three types of carbapenem-resistant A. baumanii CCARM 12004-6 were obtained from the Culture Collection of Antimicrobial Resistance Microbes (CCARM) (Cheongju City, Korea). The E. coli K1 (ATCC700973) strain used in the animal experiments was obtained from the American Type Culture Collection (ATCC) ([…]).
as §2

[16] = tested on: LPS; assay: LAL chromogenic endotoxin assay (LPS neutralization); type: biochemical; settings: LPS 2 ng/mL; peptide concentration of the values not stated (3.1-50 μM tested)
Description: Peptide-mediated LPS-neutralizing activity was determined using a Limulus amebocyte lysate (LAL) chromogenic endotoxin quantification kit (GenScript, New Jersey, USA). 3.1, 6.3, 10, 12.5, 25, and 50 μM of each peptide were allowed to react so as to interact with LPS (2 ng/mL) at 37° C. for 10 minutes. LL-37, which is known to have high LPS-neutralizing ability, was used as a control. After an LAL enzyme (10 μL) was added to the peptide-LPS complex and the resulting mixture was allowed to react for 10 minutes, a chromogenic substrate was added thereto. An endotoxin level was shown by measuring the absorbance at 545 nm in triplicate and expressed in endotoxin units (EUs) per milliliter.

[17] = tested on: LPS (E. coli O111:B4); assay: BODIPY-TR cadaverine displacement assay (LPS binding); settings: 4 μM, 30 minutes
Description: The binding ability of peptides to LPS was investigated by BODIPY-TR cadaverine (BC, Thermo Fisher Scientific, MA, USA) displacement assay (FIG. 2A). A probe complex was prepared by mixing 5 μg/mL BC and 5 μg/mL LPS (E. coli O111:B4, Sigma-Aldrich, St. Louis, MO, USA) in a 50 mM Tris buffer (pH 7.4) at room temperature for 6 hours. Peptides containing a polymyxin B (PMB) control (1 to 64 μM), which is known to have high LPS binding ability, were allowed to interact with the LPS-BC mixture in a black 96-well plate for 30 minutes. Relative fluorescence intensities were recorded using a fluorescence microplate reader (Molecular Devices, San Jose, USA) at an excitation wavelength of 580 nm and an emission wavelength of 620 nm.

[18] = sheep red blood cells, 200 μM used when no detectable hemolysis at 100 μM

| Molecule | MIC [1] | MIC [2] | MIC [3] | MIC [4] | Minimal inhibitory concentration (MIC), K. pneumonia [6] | Minimal inhibitory concentration (MIC), CRKP 15782 [7] | Toxicity in RAW264.7 cells [12] | Toxicity in human kidney (HK)-2 cells [13] | further results |
| --- | --- | --- | --- | --- | --- | --- | --- | --- | --- |
| C[C@@H](O)[C@H]1C(=O)N2C(C(=O)O)=C(SCCN=CN)C[C@H]12 [Imipenem] | – | – | – | – | – | – | – | – | MIC ([1]; Escherichia coli): 8 µM (≈ 2.39 µg/mL); MIC ([2]; Acinetobacter baumannii): 64 µM (≈ 19.2 µg/mL); MIC ([3]; Acinetobacter baumannii): 64 µM (≈ 19.2 µg/mL); MIC ([4]; Acinetobacter baumannii): 64 µM (≈ 19.2 µg/mL) |
| CC[C@@H](C)[C@@H](NC(=O)[C@@H](C)NC(=O)[C@@H](CC(C)C)NC(=O)[C@@H](Cc1c[nH]c2ccccc12)NC(=O)[C@@H](CC(C)C)NC(=O)[C@H](N)CCCNC(=N)N)C(=O)N[C@H](Cc1c[nH]c2ccccc12)C(=O)N[C@H](CCCNC(=N)N)C(=O)N[C@H](CCCNC(=N)N)C(N)=O [Pro9-3D, rlwlaiwrr-NH2] (H-[dR][dL][dW][dL][dA][dI][dW][dR][dR]-NH2) | 8 µM (≈ 10.1 µg/mL) | 8 µM (≈ 10.1 µg/mL) | 8 µM (≈ 10.1 µg/mL) | 8 µM (≈ 10.1 µg/mL) | 8 µM (≈ 10.1 µg/mL) | 8 µM (≈ 10.1 µg/mL) | – | – | HC10 (peptide concentration that induces 10% hemolysis) ([5]; red cells of sheep): 200 µM |
| CC[C@@H](C)[C@@H](NC(=O)[C@@H](Cc1c[nH]c2ccccc12)NC(=O)[C@@H](CCCNC(=N)N)NC(=O)[C@H](N)CCCNC(=N)N)C(=O)N[C@H](C)C(=O)N[C@H](CC(C)C)C(=O)N[C@H](Cc1c[nH]c2ccccc12)C(=O)N[C@H](CC(C)C)C(=O)N[C@H](CCCNC(=N)N)C(N)=O [R-Pro9-3D, rrwialwlr-NH2] (H-[dR][dR][dW][dI][dA][dL][dW][dL][dR]-NH2) | 4 µM (≈ 5.07 µg/mL) | 4 µM (≈ 5.07 µg/mL) | 4 µM (≈ 5.07 µg/mL) | 4 µM (≈ 5.07 µg/mL) | 8 µM (≈ 10.1 µg/mL) | 8 µM (≈ 10.1 µg/mL) | 20.3% | 9.6% | Hemolysis of sRBCs [5]: 1.2%; HC10 (peptide concentration that induces 10% hemolysis) [5, 18]: 200 µM; MIC, E. coli + Trypsin [8]: 8 µM; MIC, E. coli + α-Chymotrypsin [8]: 8 µM; MIC, A. baumannii + Trypsin [9]: 4 µM; MIC, A. baumannii + α-Chymotrypsin [9]: 4 µM; Minimal inhibitory concentration (MIC), P. aeruginosa [10]: 8 µM (≈ 10.1 µg/mL); Minimal inhibitory concentration (MIC), A. baumannii [11]: 4 µM (≈ 5.07 µg/mL); Serum AST, ALT and BUN levels (in vivo toxicity) [14]: no clinically significant levels; also recorded: did not increase the above enzyme levels; MIC [15]: 8 µM (≈ 10.1 µg/mL) |
| LL-37 | – | – | – | – | – | – | – | – | LPS neutralization [16]: 76.5% |
| RLWLAIWRR-NH2 [Pro9-3] | 16 µM | 16 µM | 16 µM | 16 µM | 64 µM | 64 µM | neither R-Pro9-3 nor Pro9-3 showed toxicity; also recorded: non-toxic | neither R-Pro9-3 nor Pro9-3 showed toxicity; also recorded: non-toxic | HC10 (peptide concentration that induces 10% hemolysis) ([5]; red cells of sheep): 200 µM |
| RRWIALWLR-NH2 [R-Pro9-3] | 16 µM | 16 µM | 32 µM | 16 µM | 32 µM | 16 µM | neither R-Pro9-3 nor Pro9-3 showed toxicity; also recorded: non-toxic | neither R-Pro9-3 nor Pro9-3 showed toxicity; also recorded: non-toxic | Hemolysis of sRBCs [5]: 3.4%; HC10 (peptide concentration that induces 10% hemolysis) [5, 18]: 200 µM; MIC, E. coli + Trypsin [8]: >64 µM; MIC, E. coli + α-Chymotrypsin [8]: 64 µM; MIC, A. baumannii + Trypsin [9]: >64 µM; MIC, A. baumannii + α-Chymotrypsin [9]: >64 µM; Minimal inhibitory concentration (MIC), P. aeruginosa [10]: 64 µM; Minimal inhibitory concentration (MIC), A. baumannii [11]: 16 µM; MIC [15]: 16 µM |
| polymyxin B [PMB] | – | – | – | – | – | – | – | – | BC displacement (LPS binding) [17]: 76.6% |
